From ChEMBL document CHEMBL4507294, “Data for DCP probe MSD-CYP11B2” (2021)

Tests used:
[1] = target: Mitogen-activated protein kinase 1 (Homo sapiens) (UniProt P28482); details: Compound concentration 1000.0 nM
[2] = target: Serine/threonine-protein kinase ULK2 (Homo sapiens) (UniProt Q8IYT8); details: Compound concentration 1000.0 nM
[3] = target: Serine/threonine-protein kinase LATS1 (Homo sapiens) (UniProt O95835); details: Compound concentration 1000.0 nM
[4] = target: Bone morphogenetic protein receptor type-1B (Homo sapiens) (UniProt O00238); details: Compound concentration 1000.0 nM
Sequence of Bone morphogenetic protein receptor type-1B (Homo sapiens) (O00238 whole entry): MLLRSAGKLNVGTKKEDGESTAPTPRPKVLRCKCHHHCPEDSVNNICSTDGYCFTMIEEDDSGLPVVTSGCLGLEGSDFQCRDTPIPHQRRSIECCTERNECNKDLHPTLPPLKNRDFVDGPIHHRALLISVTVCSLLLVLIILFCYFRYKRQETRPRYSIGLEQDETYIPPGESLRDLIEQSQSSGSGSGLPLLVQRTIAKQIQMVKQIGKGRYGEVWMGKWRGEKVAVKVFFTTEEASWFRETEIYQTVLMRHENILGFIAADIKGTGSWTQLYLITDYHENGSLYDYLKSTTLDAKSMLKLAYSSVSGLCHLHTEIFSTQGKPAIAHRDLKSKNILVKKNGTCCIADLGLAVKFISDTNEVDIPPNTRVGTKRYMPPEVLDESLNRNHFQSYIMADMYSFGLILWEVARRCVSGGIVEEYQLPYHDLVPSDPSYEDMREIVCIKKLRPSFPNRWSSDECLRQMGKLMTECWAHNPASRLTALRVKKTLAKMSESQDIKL

[5] = target: Mitogen-activated protein kinase 8 (Homo sapiens) (UniProt P45983); details: Compound concentration 1000.0 nM
[6] = target: Serine/threonine-protein kinase 33 (Homo sapiens) (UniProt Q9BYT3); details: Compound concentration 1000.0 nM
[7] = target: Serine/threonine-protein kinase/endoribonuclease IRE1 (Homo sapiens) (UniProt O75460); details: Compound concentration 1000.0 nM
[8] = target: Tyrosine-protein kinase JAK1 (Homo sapiens) (UniProt P23458); details: Compound concentration 1000.0 nM
Sequence of Tyrosine-protein kinase JAK1 (Homo sapiens) (P23458 whole entry): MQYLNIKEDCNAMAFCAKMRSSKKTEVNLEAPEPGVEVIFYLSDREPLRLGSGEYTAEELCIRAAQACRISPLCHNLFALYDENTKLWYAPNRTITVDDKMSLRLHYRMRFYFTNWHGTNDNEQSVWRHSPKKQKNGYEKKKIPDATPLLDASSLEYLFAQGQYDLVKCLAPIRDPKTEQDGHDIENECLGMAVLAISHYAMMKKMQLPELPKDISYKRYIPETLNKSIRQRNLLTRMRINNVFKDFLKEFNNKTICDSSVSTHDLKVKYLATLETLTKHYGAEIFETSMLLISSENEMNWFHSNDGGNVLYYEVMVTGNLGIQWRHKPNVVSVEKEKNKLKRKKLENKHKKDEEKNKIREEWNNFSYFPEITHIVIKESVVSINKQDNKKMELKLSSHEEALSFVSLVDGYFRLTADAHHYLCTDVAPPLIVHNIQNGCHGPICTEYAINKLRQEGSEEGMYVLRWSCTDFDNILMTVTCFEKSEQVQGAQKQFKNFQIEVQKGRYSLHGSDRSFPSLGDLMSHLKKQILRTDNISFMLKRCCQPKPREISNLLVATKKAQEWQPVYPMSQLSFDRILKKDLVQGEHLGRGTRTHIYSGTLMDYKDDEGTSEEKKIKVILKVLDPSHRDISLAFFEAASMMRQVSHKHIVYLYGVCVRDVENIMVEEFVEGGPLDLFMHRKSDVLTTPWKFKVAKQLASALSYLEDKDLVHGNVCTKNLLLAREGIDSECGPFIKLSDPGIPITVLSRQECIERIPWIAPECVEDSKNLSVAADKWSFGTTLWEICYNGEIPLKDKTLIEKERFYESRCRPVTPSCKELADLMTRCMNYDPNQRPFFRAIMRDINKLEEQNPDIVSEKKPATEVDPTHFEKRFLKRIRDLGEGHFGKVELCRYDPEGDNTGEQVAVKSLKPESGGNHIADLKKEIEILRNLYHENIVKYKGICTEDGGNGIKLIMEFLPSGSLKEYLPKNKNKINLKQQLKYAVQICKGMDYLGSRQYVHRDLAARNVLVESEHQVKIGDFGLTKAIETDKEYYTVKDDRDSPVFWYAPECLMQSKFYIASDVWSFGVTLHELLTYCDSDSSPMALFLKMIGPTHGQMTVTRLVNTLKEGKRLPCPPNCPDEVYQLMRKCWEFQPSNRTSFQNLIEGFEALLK

[9] = target: RAC-alpha serine/threonine-protein kinase (Homo sapiens) (UniProt P31749); details: Compound concentration 1000.0 nM
[10] = target: Homeodomain-interacting protein kinase 1 (Homo sapiens) (UniProt Q86Z02); details: Compound concentration 1000.0 nM
[11] = target: Phosphatidylinositol 4-phosphate 5-kinase type-1 alpha (Homo sapiens) (UniProt Q99755); details: Compound concentration 1000.0 nM
[12] = target: Phosphatidylinositol 3-kinase catalytic subunit type 3 (Homo sapiens) (UniProt Q8NEB9); details: Compound concentration 1000.0 nM
[13] = target: Mitogen-activated protein kinase 3 (Homo sapiens) (UniProt P27361); details: Compound concentration 1000.0 nM
[14] = target: Vascular endothelial growth factor receptor 1 (Homo sapiens) (UniProt P17948); details: Compound concentration 1000.0 nM
[15] = target: Serine/threonine-protein kinase SIK3 (Homo sapiens) (UniProt Q9Y2K2); details: Compound concentration 1000.0 nM
[16] = target: Casein kinase II subunit alpha (Homo sapiens) (UniProt P68400); details: Compound concentration 1000.0 nM
[17] = tested on: Tyrosine-protein kinase ABL1 (Homo sapiens), P00519 [H396P]; details: Compound concentration 1000.0 nM
[18] = target: RAC-beta serine/threonine-protein kinase (Homo sapiens) (UniProt P31751); details: Compound concentration 1000.0 nM
[19] = target: 3-phosphoinositide-dependent protein kinase 1 (Homo sapiens) (UniProt O15530); details: Compound concentration 1000.0 nM
[20] = target: Serine/threonine-protein kinase TNNI3K (Homo sapiens) (UniProt Q59H18); details: Compound concentration 1000.0 nM
Sequence of Serine/threonine-protein kinase TNNI3K (Homo sapiens) (Q59H18 whole entry): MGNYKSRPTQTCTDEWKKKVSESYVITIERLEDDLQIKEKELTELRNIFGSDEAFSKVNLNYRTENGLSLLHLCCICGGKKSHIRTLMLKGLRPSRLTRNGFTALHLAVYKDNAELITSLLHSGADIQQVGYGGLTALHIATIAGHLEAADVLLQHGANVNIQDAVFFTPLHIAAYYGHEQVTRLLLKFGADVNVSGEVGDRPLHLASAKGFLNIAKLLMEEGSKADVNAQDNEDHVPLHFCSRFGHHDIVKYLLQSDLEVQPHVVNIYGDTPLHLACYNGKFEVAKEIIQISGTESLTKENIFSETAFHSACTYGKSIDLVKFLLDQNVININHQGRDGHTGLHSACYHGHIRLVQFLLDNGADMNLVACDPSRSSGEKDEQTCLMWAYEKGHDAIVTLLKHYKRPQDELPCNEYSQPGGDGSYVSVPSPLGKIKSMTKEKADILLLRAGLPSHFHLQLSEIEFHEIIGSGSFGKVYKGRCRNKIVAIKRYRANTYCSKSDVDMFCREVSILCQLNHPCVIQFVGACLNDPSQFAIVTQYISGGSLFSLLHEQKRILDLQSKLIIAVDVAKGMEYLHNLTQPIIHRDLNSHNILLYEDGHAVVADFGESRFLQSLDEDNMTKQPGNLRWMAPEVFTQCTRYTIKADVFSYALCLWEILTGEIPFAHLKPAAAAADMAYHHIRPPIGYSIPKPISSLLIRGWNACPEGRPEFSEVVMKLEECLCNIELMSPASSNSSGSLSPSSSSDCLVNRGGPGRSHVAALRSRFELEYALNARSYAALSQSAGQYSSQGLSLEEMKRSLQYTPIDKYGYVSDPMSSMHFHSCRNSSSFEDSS

[21] = target: Myosin light chain kinase 2, skeletal/cardiac muscle (Homo sapiens) (UniProt Q9H1R3); details: Compound concentration 1000.0 nM
[22] = target: Myosin-IIIb (Homo sapiens) (UniProt Q8WXR4); details: Compound concentration 1000.0 nM
[23] = target: AP2-associated protein kinase 1 (Homo sapiens) (UniProt Q2M2I8); details: Compound concentration 1000.0 nM
[24] = target: Wee1-like protein kinase 2 (Homo sapiens) (UniProt P0C1S8); details: Compound concentration 1000.0 nM
[25] = target: MAP kinase-interacting serine/threonine-protein kinase 2 (Homo sapiens) (UniProt Q9HBH9); details: Compound concentration 1000.0 nM
[26] = target: Mitogen-activated protein kinase kinase kinase 11 (Homo sapiens) (UniProt Q16584); details: Compound concentration 1000.0 nM
[27] = target: Proto-oncogene tyrosine-protein kinase ROS (Homo sapiens) (UniProt P08922); details: Compound concentration 1000.0 nM
[28] = target: Serine/threonine-protein kinase PAK 4 (Homo sapiens) (UniProt O96013); details: Compound concentration 1000.0 nM
[29] = target: Mitogen-activated protein kinase kinase kinase 19 (Homo sapiens) (UniProt Q56UN5); details: Compound concentration 1000.0 nM
[30] = target: Tyrosine-protein kinase JAK1 (Homo sapiens) (UniProt P23458); details: Compound concentration 1000.0 nM; remark: listed apart in the source
[31] = target: Tyrosine-protein kinase JAK2 (Homo sapiens) (UniProt O60674); details: Compound concentration 1000.0 nM
[32] = target: Cyclin-dependent kinase 4 (Homo sapiens) (UniProt P11802); details: Compound concentration 1000.0 nM
[33] = target: Ribosomal protein S6 kinase alpha-2 (Homo sapiens) (UniProt Q15349); details: Compound concentration 1000.0 nM
[34] = target: Beta-1 adrenergic receptor (Homo sapiens, UniProt P08588); details: Compound concentration 10.0 uM
[35] = target: Tyrosine-protein kinase Fer (Homo sapiens) (UniProt P16591); details: Compound concentration 1000.0 nM
Sequence of Tyrosine-protein kinase Fer (Homo sapiens) (P16591 whole entry, looked up): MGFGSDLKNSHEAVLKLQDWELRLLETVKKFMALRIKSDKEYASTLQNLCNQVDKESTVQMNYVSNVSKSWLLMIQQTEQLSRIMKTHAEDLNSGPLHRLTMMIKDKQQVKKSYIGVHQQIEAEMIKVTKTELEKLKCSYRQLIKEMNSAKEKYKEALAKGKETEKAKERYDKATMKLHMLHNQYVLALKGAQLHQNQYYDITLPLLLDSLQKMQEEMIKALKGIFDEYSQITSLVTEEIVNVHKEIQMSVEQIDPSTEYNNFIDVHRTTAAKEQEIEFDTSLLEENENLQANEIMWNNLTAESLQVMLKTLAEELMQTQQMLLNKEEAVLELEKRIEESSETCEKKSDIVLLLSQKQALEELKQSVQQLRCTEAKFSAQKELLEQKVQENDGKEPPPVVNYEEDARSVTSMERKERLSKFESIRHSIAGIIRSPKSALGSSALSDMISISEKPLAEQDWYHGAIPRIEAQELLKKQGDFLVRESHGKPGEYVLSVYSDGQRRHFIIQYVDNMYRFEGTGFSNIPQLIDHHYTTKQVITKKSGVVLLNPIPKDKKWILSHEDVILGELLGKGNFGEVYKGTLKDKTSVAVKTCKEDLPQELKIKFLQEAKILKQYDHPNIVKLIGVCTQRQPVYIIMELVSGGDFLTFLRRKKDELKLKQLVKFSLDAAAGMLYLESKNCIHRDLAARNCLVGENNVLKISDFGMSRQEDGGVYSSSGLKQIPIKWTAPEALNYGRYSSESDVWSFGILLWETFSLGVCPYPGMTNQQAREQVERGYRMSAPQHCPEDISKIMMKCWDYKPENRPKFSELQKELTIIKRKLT

[36] = target: Protein-tyrosine kinase 6 (Homo sapiens) (UniProt Q13882); details: Compound concentration 1000.0 nM
[37] = tested on: Mast/stem cell growth factor receptor Kit (Homo sapiens), P10721 [L576P]; details: Compound concentration 1000.0 nM
[38] = target: Homeodomain-interacting protein kinase 2 (Homo sapiens) (UniProt Q9H2X6); details: Compound concentration 1000.0 nM
[39] = target: Protein-tyrosine kinase 2-beta (Homo sapiens) (UniProt Q14289); details: Compound concentration 1000.0 nM
[40] = target: TGF-beta receptor type-1 (Homo sapiens) (UniProt P36897); details: Compound concentration 1000.0 nM
[41] = tested on: Epidermal growth factor receptor (Homo sapiens), P00533 [UNDEFINED MUTATION]; details: Compound concentration 1000.0 nM
[42] = target: Serine/threonine-protein kinase BRSK2 (Homo sapiens) (UniProt Q8IWQ3); details: Compound concentration 1000.0 nM
[43] = target: Calcium/calmodulin-dependent protein kinase type II subunit alpha (Homo sapiens) (UniProt Q9UQM7); details: Compound concentration 1000.0 nM
[44] = target: Receptor tyrosine-protein kinase erbB-2 (Homo sapiens) (UniProt P04626); details: Compound concentration 1000.0 nM
[45] = target: Mitogen-activated protein kinase 12 (Homo sapiens) (UniProt P53778); details: Compound concentration 1000.0 nM
Sequence of Mitogen-activated protein kinase 12 (Homo sapiens) (P53778 whole entry): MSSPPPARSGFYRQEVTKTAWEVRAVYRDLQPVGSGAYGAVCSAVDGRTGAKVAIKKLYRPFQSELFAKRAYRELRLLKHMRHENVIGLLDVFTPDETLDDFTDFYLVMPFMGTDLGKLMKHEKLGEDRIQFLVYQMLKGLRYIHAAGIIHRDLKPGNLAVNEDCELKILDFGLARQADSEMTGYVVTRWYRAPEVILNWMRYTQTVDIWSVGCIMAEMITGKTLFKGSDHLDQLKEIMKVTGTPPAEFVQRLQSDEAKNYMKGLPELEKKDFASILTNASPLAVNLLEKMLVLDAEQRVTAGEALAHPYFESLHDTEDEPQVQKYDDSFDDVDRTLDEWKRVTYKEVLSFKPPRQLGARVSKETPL

Sequence of Serine/threonine-protein kinase LATS1 (Homo sapiens) (O95835 whole entry): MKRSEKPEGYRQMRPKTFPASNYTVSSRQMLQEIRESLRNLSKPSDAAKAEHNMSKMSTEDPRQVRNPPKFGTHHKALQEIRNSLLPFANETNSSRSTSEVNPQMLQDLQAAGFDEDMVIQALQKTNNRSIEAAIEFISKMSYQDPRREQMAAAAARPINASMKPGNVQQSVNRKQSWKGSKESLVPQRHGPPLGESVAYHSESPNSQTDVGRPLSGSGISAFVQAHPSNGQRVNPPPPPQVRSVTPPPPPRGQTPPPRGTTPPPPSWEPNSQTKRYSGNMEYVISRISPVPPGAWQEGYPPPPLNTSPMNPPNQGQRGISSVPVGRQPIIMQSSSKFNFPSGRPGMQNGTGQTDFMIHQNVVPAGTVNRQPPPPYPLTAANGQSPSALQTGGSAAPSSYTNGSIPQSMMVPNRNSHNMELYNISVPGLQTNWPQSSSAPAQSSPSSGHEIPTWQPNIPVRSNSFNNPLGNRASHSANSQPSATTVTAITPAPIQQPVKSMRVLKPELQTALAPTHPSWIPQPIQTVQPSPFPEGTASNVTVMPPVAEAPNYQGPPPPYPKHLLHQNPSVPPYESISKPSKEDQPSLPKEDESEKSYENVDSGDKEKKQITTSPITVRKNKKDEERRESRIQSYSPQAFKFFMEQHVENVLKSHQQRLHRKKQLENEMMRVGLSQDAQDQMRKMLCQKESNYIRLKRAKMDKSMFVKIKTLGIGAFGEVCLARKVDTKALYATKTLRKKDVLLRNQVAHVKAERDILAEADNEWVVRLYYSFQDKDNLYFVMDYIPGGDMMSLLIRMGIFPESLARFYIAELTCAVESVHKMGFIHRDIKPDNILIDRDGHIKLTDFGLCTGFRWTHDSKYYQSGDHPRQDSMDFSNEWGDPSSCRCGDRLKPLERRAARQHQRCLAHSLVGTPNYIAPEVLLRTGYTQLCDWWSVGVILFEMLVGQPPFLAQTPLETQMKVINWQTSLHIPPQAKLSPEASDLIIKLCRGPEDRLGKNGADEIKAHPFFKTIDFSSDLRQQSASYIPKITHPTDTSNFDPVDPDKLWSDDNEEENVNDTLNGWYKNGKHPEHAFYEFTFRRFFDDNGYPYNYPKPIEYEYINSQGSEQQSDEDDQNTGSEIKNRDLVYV

SMILES: FC(F)(F)c1ccc2c(c1)nc(-c1cccnc1)n2C1CC1 [MSD-CYP11B2-Negative-control]
- residual activity [1]: 100%
- residual activity [2]: 100%
- residual activity [3]: 86%
- residual activity [4]: 83%
- residual activity [5]: 93%
- residual activity [6]: 100%
- residual activity [7]: 100%
- residual activity [8]: 85%
- residual activity [9]: 100%
- residual activity [10]: 100%
- residual activity [11]: 71%
- residual activity [12]: 100%
- residual activity [13]: 100%
- residual activity [14]: 100%
- residual activity [15]: 100%
- residual activity [16]: 100%
- residual activity [17]: 100%
- residual activity [18]: 100%
- residual activity [19]: 94%
- residual activity [20]: 100%
- residual activity [21]: 100%
- residual activity [22]: 67%
- residual activity [23]: 100%
- residual activity [24]: 100%
- residual activity [25]: 100%
- residual activity [26]: 100%
- residual activity [27]: 100%
- residual activity [28]: 100%
- residual activity [29]: 99%
- residual activity [30]: 100%
- residual activity [31]: 100%
- residual activity [32]: 100%
- residual activity [33]: 100%
- inhibition [34]: 13.4%
- residual activity [35]: 100%
- residual activity [36]: 100%
- residual activity [37]: 100%
- residual activity [38]: 100%
- residual activity [39]: 100%
- residual activity [40]: 78%
- residual activity [41]: 100%
- residual activity [42]: 90%
- residual activity [43]: 88%
- residual activity [44]: 100%
- residual activity [45]: 100%

SMILES: CC(C)(O)c1cncc(-c2nc3ccc(F)cc3n2C2CC2)c1 [MSD-CYP11B2]
- residual activity [1]: 100%
- residual activity [2]: 100%
- residual activity [3]: 82%
- residual activity [4]: 96%
- residual activity [5]: 100%
- residual activity [6]: 100%
- residual activity [7]: 100%
- residual activity [8]: 80%
- residual activity [9]: 100%
- residual activity [10]: 97%
- residual activity [11]: 76%
- residual activity [12]: 100%
- residual activity [13]: 100%
- residual activity [14]: 100%
- residual activity [15]: 97%
- residual activity [16]: 100%
- residual activity [17]: 100%
- residual activity [18]: 84%
- residual activity [19]: 97%
- residual activity [20]: 100%
- residual activity [21]: 97%
- residual activity [22]: 71%
- residual activity [23]: 100%
- residual activity [24]: 100%
- residual activity [25]: 100%
- residual activity [26]: 100%
- residual activity [27]: 100%
- residual activity [28]: 100%
- residual activity [29]: 93%
- residual activity [30]: 100%
- residual activity [31]: 100%
- residual activity [32]: 100%
- residual activity [33]: 100%
- inhibition [34]: 59.4%
- residual activity [35]: 100%
- residual activity [36]: 100%
- residual activity [37]: 100%
- residual activity [38]: 100%
- residual activity [39]: 100%
- residual activity [40]: 90%
- residual activity [41]: 100%
- residual activity [42]: 100%
- residual activity [43]: 94%
- residual activity [44]: 100%
- residual activity [45]: 88%
